Data on one molecule can be found in patent US5710153A, “Tetrazole compound” (Ono Phramaceutical Co., Ltd., priority 1995, dated 1998).

For this test, the target named is T1, human ICE (Homo sapiens, UniProt P29466).
T1 sequence (P29466 120-297 limits assumed): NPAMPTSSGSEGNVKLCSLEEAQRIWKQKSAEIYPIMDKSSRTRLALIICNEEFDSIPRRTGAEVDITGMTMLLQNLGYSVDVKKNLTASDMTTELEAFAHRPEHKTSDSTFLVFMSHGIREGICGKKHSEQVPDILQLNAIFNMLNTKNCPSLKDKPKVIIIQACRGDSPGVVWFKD
T1 sequence (P29466 317-404 limits assumed): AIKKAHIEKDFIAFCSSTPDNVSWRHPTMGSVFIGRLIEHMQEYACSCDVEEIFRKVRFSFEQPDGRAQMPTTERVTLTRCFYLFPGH
As to the kind of experiment: Assay for IL-1β converting enzyme. Format: biochemical. Conditions: human ICE solution, substrate Ac-Tyr-Val-Ala-Asp-MCA, 37° C., fluorescence. The procedure:
(1) Assay for IL-1β converting enzyme
The reaction mixture contains, for example, 20 mM of HEPES-NaOH pH7.4, 10 mM of KOH, 1.5 mM of MgCl2, 0.1 mM of EDTA and 10% glycerol. Various concentrations of test compounds (50 μl), human ICE solution (50 μl) and various concentrations of substrate (Ac-Tyr-VaI-Ala-Asp-MCA) were mixed and incubated at 37° C. Fluorescence intensity was measured at […].
In the aboved example method,
HEPES is 4-(2-Hydroxyethyl)-1-piperazineethane-sulfonic acid,
EDTA is Ethylenediamine tetraacetate, and
Ac-Tyr-Val-Ala-Asp-MCA is Acetyl-L-tyrosyl-L-valyl-L-alanyl-L-asparaginic acid 4-methyl-coumarinyl-7-amide.

For the molecule `CC(C)[C@H](NC(=O)CCc1ccccc1)C(=O)N[C@@H](C)C(=O)NC(CC(=O)O)C(=O)Cn1nnc(-c2c(Cl)cccc2Cl)n1` (stereo partly drawn) [Example 2(1), N-((N-(3-phenylpropionyl)-L-valyl)-L-alanyl)-3-amino-4-oxo-5-(5-(2,6-dichlorophenyl)tetrazol-2-yl)pentanoic acid], the midpoint of inhibition, the IC50, lay at 30 nM. That is a double-digit nanomolar value.

One may read the IC50 as the point on the concentration scale where inhibition reaches its midpoint.
